According to patent US20260217708A1, “FUSED BENZAZEPINE DERIVATIVES FOR USE IN THE TREATMENT OF CANCER AND EPILEPSY” (UCB BIOPHARMA SRL, priority 2023, published 2026):

Experiments:
system Xc^− [1] = molecular target: T1, system Xc^− (Homo sapiens, UniProt Q9UPY5); test: Cystine-induced glutamate release assay; format: cell-based; parameters: endogenous in cells; host or cells: H4 cells; details: H4 cells, sodium-free HEPES buffer, 50 μM L-Cystine, 2 hours, Amplex Red glutamate readout; read-out: pIC50 Cystine-induced glutamate release assay (converted)
T1 sequence (Q9UPY5 1-501): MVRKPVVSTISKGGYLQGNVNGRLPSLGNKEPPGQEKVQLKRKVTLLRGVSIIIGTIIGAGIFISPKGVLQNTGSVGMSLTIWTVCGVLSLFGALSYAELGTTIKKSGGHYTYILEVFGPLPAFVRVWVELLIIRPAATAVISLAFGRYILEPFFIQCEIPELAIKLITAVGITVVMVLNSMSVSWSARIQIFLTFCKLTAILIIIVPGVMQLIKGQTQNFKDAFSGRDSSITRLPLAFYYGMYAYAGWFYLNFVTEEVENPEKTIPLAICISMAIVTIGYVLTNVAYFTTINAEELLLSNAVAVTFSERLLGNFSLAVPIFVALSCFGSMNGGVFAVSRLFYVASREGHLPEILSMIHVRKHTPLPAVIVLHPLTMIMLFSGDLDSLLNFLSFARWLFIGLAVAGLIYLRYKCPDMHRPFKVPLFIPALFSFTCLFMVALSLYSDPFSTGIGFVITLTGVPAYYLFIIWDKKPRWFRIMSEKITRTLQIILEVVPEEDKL
T1 sequence (P08195 1-529 partner): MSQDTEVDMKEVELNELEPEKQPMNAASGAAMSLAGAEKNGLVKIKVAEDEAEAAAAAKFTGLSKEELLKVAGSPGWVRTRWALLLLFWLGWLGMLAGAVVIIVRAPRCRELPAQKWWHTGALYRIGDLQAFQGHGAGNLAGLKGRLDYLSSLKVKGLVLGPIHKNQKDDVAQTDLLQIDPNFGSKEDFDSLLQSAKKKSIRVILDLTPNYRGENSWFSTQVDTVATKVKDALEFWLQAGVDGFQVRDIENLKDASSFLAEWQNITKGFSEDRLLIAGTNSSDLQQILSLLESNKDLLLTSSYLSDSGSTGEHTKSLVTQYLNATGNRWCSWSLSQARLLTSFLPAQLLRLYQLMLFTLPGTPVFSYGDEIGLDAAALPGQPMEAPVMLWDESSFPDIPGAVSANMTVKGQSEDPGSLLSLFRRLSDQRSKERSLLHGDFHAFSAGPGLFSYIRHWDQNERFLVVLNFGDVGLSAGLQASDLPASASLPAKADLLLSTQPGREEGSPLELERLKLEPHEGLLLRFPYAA
How it was run: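 H4 cells in sodium-free HEPES buffer (pH 7.4), 2 days after plating; glutamate release induced with 50 μM L-cystine plus compound (1% DMSO), 2 h at 37 °C. Supernatant glutamate measured by Amplex Red fluorescence; IC50/pIC50 derived between 1% DMSO and 50 μM erastin controls.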

system Xc^− [2] = molecular target: T1, system Xc^−; test: [^14C]L-Cystine uptake assay; format: cell-based; parameters: endogenous in cells; host or cells: H4 cells; details: H4 cells, sodium-free HEPES buffer, 0.5 μM L-[14C]Cystine and 4.5 μM L-Cystine, 1 hour at 37° C.; read-out: pIC50 [^14C] L-Cystine uptake assay (converted)
How it was run: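 H4 cells at 5×10^4 cells/well in sodium-free HEPES buffer were preincubated 15 min with compounds (1% DMSO). Uptake of 0.5 μM [14C]L-cystine plus 4.5 μM unlabelled L-cystine ran 1 hour at 37° C on scintillating plates. IC50 was set between 1% DMSO and 50 μM Erastin controls and expressed as pIC50.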

Compound | IC50 (system Xc^− [1]) [nM] | IC50 (system Xc^− [2]) [nM]
CC1C(=O)N(CC(=O)Nc2ccc(C(F)F)cc2)c2cc(Cl)cc(F)c2-c2cncnc21 (single isomer, unassigned) [#313, 2-[9-chloro-11-fluoro-5-methyl-6-oxo-5H-pyrimido[4,5-d][1]benzazepin-7-yl]-N-[4-(difluoromethyl)phenyl]acetamide] | < 15.8 | 15.8 to 39.8
Cc1cc2c(c(=O)n1C)-c1ccnn1C(C)C(=O)N2CC(=O)Nc1ccc(C(F)F)cc1 (single isomer, unassigned) [#358, N-[4-(difluoromethyl)phenyl]-2-[7,12,13-trimethyl-8,14-dioxo-5,6,9,13-tetrazatricyclo[8.4.0.0^2,6]tetradeca-1(10),2,4,11-tetraen-9-yl]acetamide] | 15.8 to 39.8 | 100 to 501
COc1nc(C)cc2c1-c1cccnc1CC(=O)N2CC(=O)Nc1ccc(C(F)(F)F)cc1 [#75, 2-(3-methoxy-5-methyl-9-oxo-4,8,12-triazatricyclo[9.4.0.0^2,7]pentadeca-1(11),2,4,6,12,14-hexaen-8-yl)-N-[4-(trifluoromethyl)phenyl]acetamide] | 15.8 to 39.8 | 15.8 to 39.8
Cc1cc2c(cn1)-c1cccnc1[C@@H](C)C(=O)N2CC(=O)Nc1ccc(C(F)(F)F)cc1 (single isomer, unassigned) [#201, Enantiomer (10R) or (10S) of 2-[5,10-dimethyl-9-oxo-4,8,12-triazatricyclo[9.4.0.0^2,7]pentadeca-1(11),2(7),3,5,12,14-hexaen-8-yl]-N-[4-(trifluoromethyl)phenyl]acetamide] | 15.8 to 39.8 | < 15.8
Cc1cc2c(cc1C)N(CC(=O)Nc1ccc(C(F)(F)F)cc1)C(=O)Cc1ccc(Cl)nc1-2 [#10, 2-(2-chloro-9,10-dimethyl-6-oxo-5H-pyrido[3,2-d][1]benzazepin-7-yl)-N-[4-(trifluoromethyl)phenyl]acetamide] | 100 to 501 | 100 to 501
CCOc1nc(C)cc2c1-c1cccnc1CC(=O)N2CC(=O)Nc1ccc(C(F)(F)F)cc1 [#82, 2-(3-ethoxy-5-methyl-9-oxo-4,8,12-triazatri-cyclo[9.4.0.0^2,7]penta-deca-1(15),2(7),3,5,11, 13-hexaen-8-yl)-N-[4-(trifluoromethyl)phenyl] acetamide] | 100 to 501 | 39.8 to 100
Cc1cc2c(c(Cl)n1)-c1cncnc1[C@@H](C)C(=O)N2CC(=O)Nc1ccc(C(F)(F)F)cc1 (single isomer, unassigned) [#207, Enantiomer (8S) or (8R) of 2-[15-chloro-8,13-dimethyl-9-oxo-4,6,10,14-tetrazatricyclo[9.4.0.0^2,7]pentadeca-1(11),2,4,6,12,14-hexaen-10-yl]-N-[4-(trifluoromethyl)phenyl]acetamide] | 15.8 to 39.8 | < 15.8
CC1C(=O)N(CC(=O)Nc2ccc(C(F)F)cc2)c2cc(N3CC[C@@H]3CO)nc(F)c2-c2cccnc21 (stereo partly drawn) [#273, N-[4-(difluoromethyl)phenyl]-2-[3-fluoro-5-[(2R)-2-(hydroxymethyl)azetidin-1-yl]-10-methyl-9-oxo-4,8,12-triazatricyclo[9.4.0.0^2,7]pentadeca-1(15),2,4,6,11,13-hexaen-8-yl]acetamide] | < 15.8 | < 15.8
Cc1cc2c(c(F)n1)-c1cccnc1[C@@H](C)C(=O)N2CC(=O)Nc1ccc(Cl)c(F)c1 (single isomer, unassigned) [#200, Enantiomer (10R) or (10S) of N-(4-chloro-3-fluoro-phenyl)-2-[3-fluoro-5,10-dimethyl-9-oxo-4,8,12-triazatricyclo[9.4.0.0^2,7]pentadeca-1(11),2(7),3,5,12,14-hexaen-8-yl]acetamide] | 15.8 to 39.8 | < 15.8
CC1C(=O)N(CC(=O)Nc2ccc(C(F)F)cc2)c2cc(Cl)cc(F)c2-c2cccnc21 (single isomer, unassigned) [#332, 2-[9-chloro-11-fluoro-5-methyl-6-oxo-5H-pyrido[2,3-d][1]benzazepin-7-yl]-N-[4-(difluoromethyl)phenyl]acetamide] | 15.8 to 39.8 | < 15.8
Cc1cc2c(cn1)-c1c(Cl)cccc1CC(=O)N2CC(=O)Nc1ccc(C(F)(F)F)cc1 [#32, 2-(11-chloro-3-methyl-6-oxo-7H-pyrido[4,3-d][3]benzazepin-5-yl)-N-[4-(trifluoro-methyl)phenyl] acetamide] | 100 to 501 | 100 to 501
Cc1cc2c(cc1C)N(CC(=O)Nc1ccc(C(F)(F)F)cc1)C(=O)Cc1cccnc1-2 [#22, 2-(9,10-dimethyl-6-oxo-5H-pyrido[3,2-d][1]benzazepin-7-yl)-N-[4-(trifluoromethyl)phenyl]acetamide] | 100 to 501 | 39.8 to 100
CC1C(=O)N(CC(=O)Nc2ccc(C(F)F)cc2)c2cc(C3CC3)c(=O)n(C)c2-c2ccccc21 (stereo not shown) [#322, 2-(3-cyclopropyl-1,7-dimethyl-2,6-dioxo-7H-pyrido[3,2-d][3]benzazepin-5-yl)-N-[4-(difluoromethyl)phenyl]acetamide] | 15.8 to 39.8 | 39.8 to 100
CC(=O)N(C)c1nc2c(s1)-c1ccccc1CC(=O)N2CC(=O)Nc1ccc(C(F)(F)F)cc1 [#118, 2-[2-[acetyl(methyl)amino]-5-oxo-6H-thiazolo[4,5-d][3]benzazepin-4-yl]-N-[4-(trifluoromethyl)phenyl]acetamide] | 100 to 501 | 39.8 to 100
Cc1cc2c(c(F)n1)-c1ccnnc1C(C)C(=O)N2CC(=O)Nc1ccc(C(F)F)cc1 (single isomer, unassigned) [#257, N-[4-(difluoromethyl)phenyl]-2-[3-fluoro-5,10-dimethyl-9-oxo-4,8,12,13-tetrazatricyclo[9.4.0.0^2,7]pentadeca-1(15),2,4,6,11,13-hexaen-8-yl]acetamide] | 39.8 to 100 | 39.8 to 100
CC1C(=O)N(CC(=O)Nc2ccc(C(F)(F)F)nc2)c2cc(Cl)cc(F)c2-c2cccnc21 (single isomer, unassigned) [#331, 2-[9-chloro-11-fluoro-5-methyl-6-oxo-5H-pyrido[2,3-d][1]benzazepin-7-yl]-N-[6-(trifluoromethyl)-3-pyridyl]acetamide] | 39.8 to 100 | 15.8 to 39.8
Cc1cc2c(c(F)n1)-c1ncc(F)cc1CC(=O)N2CC(=O)Nc1ccc(Cl)c(F)c1 [#417, N-(4-chloro-3-fluoro-phenyl)-2-(5,15-difluoro-13-methyl-9-oxo-3,10,14-triazatricyclo[9.4.0.0^2,7]pentadeca-1(11),2,4,6,12,14-hexaen-10-yl)acetamide] | 39.8 to 100 | 15.8 to 39.8
CO[C@H]1C(=O)N(CC(=O)Nc2ccc(C(F)(F)F)cc2)c2cc(C)nc(Cl)c2-c2cccnc21 (single isomer, unassigned) [#210, Enantiomer (10S) or (10R) of 2-[3-chloro-10-methoxy-5-methyl-9-oxo-4,8,12-triazatricyclo[9.4.0.0^2,7]pentadeca-1(11),2(7),3,5,12,14-hexaen-8-yl]-N-[4-(trifluoromethyl)phenyl]acetamide] | 15.8 to 39.8 | < 15.8
Cc1cc2c(c(C#N)n1)-c1cccnc1CC(=O)N2CC(=O)Nc1ccc(C(F)(F)F)cc1 [#153, 2-(3-cyano-5-methyl-9-oxo-4,8,12-triazatricyclo[9.4.0.0^2,7]pentadeca-1(11),2(7),3,5,12,14-hexaen-8-yl)-N-[4-(trifluoromethyl)phenyl]acetamide] | 15.8 to 39.8 | 15.8 to 39.8
Cc1cc2c(cn1)-c1cccc(Cl)c1CC(=O)N2CC(=O)Nc1ccc(C(F)(F)F)cc1 [#31, 2-(8-chloro-3-meth-yl-6-oxo-7H-pyrido [4,3-d][3]benzaze-pin-5-yl)-N-[4-(trifluoromethyl)-phenyl]acetamide] | 100 to 501 | 15.8 to 39.8
